Test results as given in US20180327806A1, “MULTIPLEX HIGH-[…] OF MICRO-ORGANISM STRAINS, RELATED KITS, D[…] AND SCREENING ASSAYS” (THE BROAD INSTITUTE, INC., priority 2015, published 2018).

Assays:
[1] = system: PA14 strain with MurA knockdown (hypomorph); experiment: Growth of PA14 MurA knockdown (hypomorph) strain with drug; format: cell-based, Pseudomonas aeruginosa
Text: Engineering hypersusceptible strains (hypomorph strains): Strain PA14 is engineered so that the expression of selected essential genes may be lowered using a ‘weaker’ promoter. […] 30). It is possible to use a promoter library of varying strengths that was developed to drive GFP expression in E. coli (Davis, J. H., A. J. Rubin, and R. T. Sauer, Design, construction and characterization of a set of insulated bacterial promoters. Nucleic Acids Res, 2011. 39(3): p. 1131-41). […] The weakest promoter that provides the lowest tolerable level of the protein that still yields a viable bacterium may be used for each essential gene to create a hypersensitive strain. It is also proposed to construct control strains by knocking out dihydrofolate reductase dhfr (which is the target of trimethoprim), dihydropteroate synthetase dhps (which is the target of sulfamethoxazole), murA (which is the target of fosfomycin) and ostA (which is the OMP target of POL7001 [Srinivas, N., et al., Peptidomimetic antibiotics target outer-membrane biogenesis in Pseudomonas aeruginosa. Science, 2010. 327(5968): p. 1010-3.]). Then, it is possible to measure the MIC for each of these compounds against their respective strains compared to wild-type PA14.
FIG. 5 illustrates the use of variable promoters for generating and selecting hypomorph strains. […]

[2] = system: dfrA hypomorph strain; format: cell-based, M. tuberculosis; details: drug targeting dfrA

SMILES | sensitivity of MurA knockdown PA14 strain to drug [1] | sensitivity of dfrA hypomorph strain to drug (dose response curve) [2]
C[C@@H]1O[C@@H]1P(=O)(O)O [fosfomycin] | hypersensitive | 
CN(Cc1cnc2nc(N)nc(N)c2n1)c1ccc(C(=O)N[C@@H](CCC(=O)O)C(=O)O)cc1 [methotrexate] |  | hypersensitive
